Activity calls are given as the source filed them. The calls are words filed in the database; no cut-off is given here.
Tests used:
PC-12 [1] = experiment: Neuroprotective activity against amyloid beta (25 to 35)-induced rat PC12 cells assessed as decrease in TNF-alpha expression level at 7.5 to 30 uM preincubated for 30 mins followed by amyloid beta (25 to 35) addition and measured after 24 hrs by western blot assay; type: functional, cell-based; details: dose 7.5-30 µM, time 24.5 hrs
PC-12 [2] = experiment: Neuroprotective activity against amyloid beta (25 to 35)-induced rat PC12 cells assessed as reduction in amyloid beta (25 to 35)-induced apoptosis rate at 7.5 uM incubated for 15 mins by Annexin V-FITC/PI staining based flow cytometric analysis (reference value: 2.9%); type: functional; set-up: scale not given: the % may be the effect or the level left; details: 0.25 h
Mus musculus [3] = experiment: Antialzheimer activity against amyloid beta (25 to 35)-induced brain injury ICR mouse model assessed as increase in NeuN expression level in cerebral cortex at 50 mg/kg,po administrated for 21 days by immunohistochemistry analysis; type: functional, organism-based; details: time 21.0 day
[4] = Toxicity in ICR mouse assessed as pathological changes in kidney at 12.5 to 50 mg/kg,po administrated for 20 days by hematoxylin and eosin staining based microscopic analysis; type: organism-based; details: in vivo, 480 h, dose 12.5-50 mg/kg, time 20 day
[5] = Half life in Sprague-Dawley rat at 60 mg/kg,po measured at 0.25 to 24 hrs post administration by LC-MS/MS analysis; type: ADME, organism-based; details: in vivo, time 0.25-24 hrs
Mus musculus [6] = experiment: Antialzheimer activity against amyloid beta (25 to 35)-induced cognitive deficit ICR mouse model assessed as increase in discrimination index at 50 mg/kg,po observed after 24 hrs of administration by novel object recognition test; type: functional, organism-based
N2a [7] = experiment: Cytotoxicity against mouse Neuro2a cells assessed as decrease in cell viability at 120 uM incubated for 24 hrs by MTT assay; type: toxicity, cell-based
PC-12 [8] = experiment: Neuroprotective activity against amyloid beta (25 to 35)-induced rat PC12 cells assessed as decrease in JNK phosphorylation level at 7.5 to 30 uM preincubated for 30 mins followed by amyloid beta (25 to 35) addition and measured after 24 hrs by western blot assay; type: functional, cell-based; details: dose 7.5-30 µM, time 24.5 hrs
[9] = Volume of distribution of steady state in Sprague-Dawley rat at 10 mg/kg,iv measured at 0.083 to 24 hrs post administration by LC-MS/MS analysis; type: ADME, organism-based; details: in vivo, time 0.083-24 hrs, read-out: Vdss
PC-12 [10] = experiment: Neuroprotective activity against amyloid beta (25 to 35)-induced rat PC12 cells assessed as decrease in tau hyperphosphorylation at Thr181 at 7.5 to 30 uM preincubated for 30 mins followed by amyloid beta (25 to 35) addition and measured after 24 hrs by western blot assay; type: functional, cell-based; details: dose 7.5-30 µM, time 24.5 hrs
PC-12 [11] = experiment: Neuroprotective activity against amyloid beta (25 to 35)-induced rat PC12 cells assessed as decrease in IL-1beta expression level at 7.5 to 30 uM preincubated for 30 mins followed by amyloid beta (25 to 35) addition and measured after 24 hrs by western blot assay; type: functional, cell-based; details: dose 7.5-30 µM, time 24.5 hrs
[12] = Oral bioavailability in Sprague-Dawley rat at 60 mg/kg measured after 0.25 to 24 hrs post administration by LC-MS/MS analysis; type: ADME, organism-based; details: in vivo, time 0.25-24 hrs
[13] = MRT (0 to t) in Sprague-Dawley rat at 60 mg/kg,po measured at 0.25 to 24 hrs post administration by LC-MS/MS analysis; type: ADME, organism-based; details: in vivo, time 0.25-24 hrs
[14] = Cytotoxicity against human HepG2 cells assessed as cell viability at 120 uM incubated for 24 hrs by MTT assay; type: toxicity, cell-based; details: read-out: Activity
PC-12 [15] = experiment: Neuroprotective activity against amyloid beta (25 to 35)-induced rat PC12 cells assessed as decrease in COX-2 expression level at 7.5 to 30 uM preincubated for 30 mins followed by amyloid beta (25 to 35) addition and measured after 24 hrs by western blot assay; type: functional, cell-based; details: dose 7.5-30 µM, time 24.5 hrs
[16] = Cmax in Sprague-Dawley rat at 60 mg/kg,po measured at 0.25 to 24 hrs post administration by LC-MS/MS analysis; type: ADME, organism-based; set-up: dose 60 mg/kg, time upper 24 hrs, time lower 0.25 hrs, route po; details: in vivo
Mus musculus [17] = experiment: Antialzheimer activity against amyloid beta (25 to 35)-induced brain injury ICR mouse model assessed as increase in NeuN expression level in hippocampal CA1 region at 50 mg/kg,po administrated for 21 days by immunohistochemistry analysis; type: functional, organism-based; details: time 21.0 day
PC-12 [18] = experiment: Neuroprotective activity against amyloid beta (25 to 35)-induced rat PC12 cells assessed as decrease in p38 expression level at 7.5 to 30 uM preincubated for 30 mins followed by amyloid beta (25 to 35) addition and measured after 24 hrs by western blot assay; type: functional, cell-based; details: dose 7.5-30 µM, time 24.5 hrs
Mus musculus [19] = experiment: Antialzheimer activity against amyloid beta (25 to 35)-induced spatial memory deficit ICR mouse model assessed as increase in exploration time spent at 50 mg/kg,po observed at 16 to 20 days of administration by morris water maze test; type: functional, organism-based; details: time 16-20 day
[20] = Cytotoxicity against human HUVEC cells assessed as cell viability at 120 uM incubated for 24 hrs by MTT assay; type: toxicity, cell-based; details: read-out: Activity
[21] = Toxicity in ICR mouse assessed as pathological changes in spleen at 12.5 to 50 mg/kg,po administrated for 20 days by hematoxylin and eosin staining based microscopic analysis; type: organism-based; details: in vivo, 480 h, dose 12.5-50 mg/kg, time 20 day
HUVEC [22] = experiment: Cytotoxicity against human HUVEC cells assessed as effect on survival at < 60 uM incubated for 24 hrs by MTT assay; type: toxicity, cell-based
[23] = MRT (0 to t) in Sprague-Dawley rat at 10 mg/kg,iv measured at 0.083 to 24 hrs post administration by LC-MS/MS analysis; type: ADME, organism-based; details: in vivo, time 0.083-24 hrs
Mus musculus [24] = experiment: Antialzheimer activity against amyloid beta (25 to 35)-induced cognitive deficit ICR mouse model assessed as effect on total number of arm enteries at 12.5 to 50 mg/kg,po observed after 11 days of administration by Y maze test; type: functional, organism-based; details: dose 12.5-50 mg/kg, time 11.0 day
HUVEC [25] = experiment: Cytotoxicity against human HUVEC cells assessed as decrease in cell viability at 120 uM incubated for 24 hrs by MTT assay; type: toxicity, cell-based
Mus musculus [26] = experiment: Antialzheimer activity against amyloid beta (25 to 35)-induced brain injury ICR mouse model assessed as increase in NeuN expression level in hippocampal CA3 region at 50 mg/kg,po administrated for 21 days by immunohistochemistry analysis; type: functional, organism-based; details: time 21.0 day
PC-12 [27] = experiment: Cytotoxicity against rat PC12 cells assessed as decrease in cell viability at 120 uM incubated for 24 hrs by MTT assay; type: toxicity, cell-based; details: pc-12, 24 h
[28] = Clearance in Sprague-Dawley rat at 10 mg/kg,iv measured at 0.083 to 24 hrs post administration by LC-MS/MS analysis; type: ADME, organism-based; details: in vivo, time 0.083-24 hrs
N2a [29] = experiment: Cytotoxicity against mouse Neuro2a cells assessed as effect on survival at < 60 uM incubated for 24 hrs by MTT assay; type: toxicity, cell-based
PC-12 [30] = experiment: Neuroprotective activity against amyloid beta (25 to 35)-induced rat PC12 cells assessed as decrease in amyloid beta level at 3.75 to 30 uM incubated for 30 mins followed by amyloid beta (25 to 35) addition and measured after 24 hrs by ELISA; type: functional, cell-based; details: dose 3.75-30 µM, time 24.5 hrs
Mus musculus [31] = experiment: Antialzheimer activity against amyloid beta (25 to 35)-induced cognitive deficit ICR mouse model assessed as increase in preferential index at 50 mg/kg,po observed after 1 hr of administration by novel object recognition test; type: functional, organism-based

half-life [5]: 49 min | Vd [9]: 0.133 L/kg | bioavailability [12]: 0.2% | MRT last [13]: 134 min | Cmax [16]: 220 ng/mL | MRT last [23]: 25.6 min | clearance [28]: 4.29 mL/min/kg
SMILES: CC1(C)CCC[C@](C)([C@H]2CC[C@]3(C)[C@@H]2[C@H](O)C[C@@H]2[C@@]4(C)CC[C@H](OC(=O)NCc5ccccc5)C(C)(C)[C@@H]4CC[C@]23C)O1
Activity (PC-12 [1]): Active | Activity (PC-12 [2]): 14.1% | Activity (Mus musculus [3]): Active | Activity [4]: Non-Toxic | Activity (Mus musculus [6]): Active | Activity (N2a [7]): Toxic | Activity (PC-12 [8]): Active | Activity (PC-12 [10]): Active | Activity (PC-12 [11]): Active | viability at 24 h, 120 µM [14]: > 50% | Activity (PC-12 [15]): Active | Activity (Mus musculus [17]): Active | Activity (PC-12 [18]): Active | Activity (Mus musculus [19]): Active | viability at 24 h, 120 µM [20]: > 50% | Activity [21]: Non-Toxic | Activity (HUVEC [22]): Non-Toxic | Activity (Mus musculus [24]): inactive | Activity (HUVEC [25]): Toxic | Activity (Mus musculus [26]): Active | Activity (PC-12 [27]): Toxic | Activity (N2a [29]): Non-Toxic | Activity (PC-12 [30]): Active | Activity (Mus musculus [31]): inactive

Source: ChEMBL document CHEMBL5247626, “In vitro and in vivo biological evaluation of newly synthesized multi-target 20(R)-panaxadiol derivatives for treating Alzheimer's disease” (Eur J Med Chem, 2022)
